Data on seven molecules can be found in US20220265712A1, “POPULATIONS OF NATURAL KILLER CELLS FOR TREATING CANCERS” (CELULARITY INC., priority 2019, published 2022).

Like-named read-outs stand apart in the source and are kept apart here.

In series [1] the test system is CD34+ cells. In words: NK cell expansion from CD34+ cells cultured with CRL compounds (three-stage NK culture, Day 35). It is filed as cell-based, human. To be noted: 10 μM; for expansion compared to SR1 / cell expansion, rank among all the compounds: Day 35; for expansion compared to SR1: SR1 10 μM positive control; for expansion, differentiation and cytotoxicity profiles compared to SR1: PNK-007 culture. From the text:
(§1) UCB CD34+ cells were cultivated in presence of cytokines including thrombopoietin, SCF, Flt3 ligand, IL-7, IL-15 and IL-2 for 35 days to produce three-stage NK cells, as described in Example 1. Multi-color flow cytometry was used to determine the phenotypic characteristics of three-stage NK cells.
(§2) For biological testing, the compounds were provided to culture to evaluate their effects on NK cell expansion and differentiation. Specifically, donors of CD34+ cells (StemCell Technology) were thawed and expanded in vitro following NK culture protocol. During the first 14 days of the culture, each CRL compounds was dissolved in DMSO and added to the culture at 10 μM concentration. SR1 (at 10 μM) served as a positive control compound, while DMSO alone without any compound served as a negative control. At the end of the culture on Day 35, cell expansion, natural killer (NK) cell differentiation and cytotoxicity of the cells against K562 tumor cell line were characterized. Due to the large number of the compounds, the testing was performed in two experiments, CRL1-11 and CRL 12-22. The same donors were used for each experiment. Positive and negative controls were also included in both experiments.

Another series relates to K562 tumor cells. In words: Cytotoxicity assay of compound cultured cells against K562 tumor cells. It is filed as cell-based. To be noted: 10:1 effector to target ratio; both donors. Here is the method:
as §2
Cytotoxicity assay was run using compound cultured cells against K562 tumor cells at 10:1 effector to target ratio (FIG. 5) to evaluate cell functions.

Series [2] deals with CD34+ cells. Briefly: NK cell differentiation of compound cultured cells (flow cytometry). The series is classed as cell-based, human. To be noted: compared to SR1.
Description: as §1, §2
(In general: Flow cytometry measures light scatter and fluorescence of single cells or particles in a stream.)

The test system of the next series is CD34 cells. In words: CD34 cell expansion at Day 14 of the culture. The series is classed as cell-based, human. To be noted: 10 μM. Here is the method: as §2
Another series concerns NDMM patients. To be noted: cited from earlier work.

Regarding `Cc1cncc(-c2nc(NCCc3c[nH]c4ccccc34)c3scc(C(C)C)c3n2)c1` [CRL21, N-(2-(1H-indol-3-yl)ethyl)-7-isopropyl-2-(5-methylpyridin-3-yl)thieno[3,2-d]pyrimidin-4-amine], in the series with CD34+ cells [1], the “expansion compared to SR1” value is listed as “slightly less expansion compared to SR1”. In addition, the “killing activities compared to cells cultured with SR1” value in the series on K562 tumor cells is reported as “increased killing activities of the cells”. Also, the “CD56+/CD11a+ subpopulation” value in the series with CD34+ cells [2] is on record as “increased CD56+/CD11a+ subpopulation”.
With `Fc1cncc(-c2nc(NCCc3c[nH]c4ccccc34)c3occc3n2)c1` [CRL19, N-(2-(1H-indol-3-yl)ethyl)-2-(5-fluoropyridin-3-yl)furo[3,2-d]pyrimidin-4-amine], in the series with CD34+ cells [1], the “cell expansion, rank among all the compounds” value was “supported cell expansion the best”; the “expansion, differentiation and cytotoxicity profiles compared to SR1” value is “very similar expansion, differentiation and cytotoxicity profiles as SR1”. For the same molecule, in the series with CD34 cells, the CD34 cell expansion entry was “achieved the highest CD34 cell expansion”.
`Nc1cccc2c1CN(C1CCC(=O)NC1=O)C2=O` (stereo not shown) [lenalidomide, 3-(4′ aminoisoindoline-1′-one)-1-piperidine-2,6-dione]: the figures for the “ORR (VGPR or better)” value in the series with NDMM patients (1 year post ASCT) and with NDMM patients (2 year post ASCT) were 48% and 36%, respectively. For the same molecule, in the series on NDMM patients (95% CI 0.46-0.71, p<0.0001), the “hazard ratio for TTP versus placebo” value is 0.57. For the same molecule, the “median TTP” value in the series on NDMM patients (95% CI 44.2-73.3, not accounting for crossover) is on record as 57.3 months.
Turning to `CC(C)c1csc2c(NCCc3c[nH]c4ccccc34)nc(-c3cncc(C#N)c3)nc12` [CRL17, 5-(4-((2-(1H-indol-3-yl)ethyl)amino)-7-isopropylthieno[3,2-d]pyrimidin-2-yl)nicotinonitrile], the “expansion compared to SR1” value in the series with CD34+ cells [1] was “slightly less expansion compared to SR1”. For the same molecule, the “killing activities compared to cells cultured with SR1” value in the series on K562 tumor cells is listed as “increased killing activities of the cells”. Further, the “CD56+/CD11a+ subpopulation” value in the series on CD34+ cells [2] was “increased CD56+/CD11a+ subpopulation”.
In the case of `Cc1cncc(-c2nc(NCCc3c[nH]c4ccccc34)c3occc3n2)c1` [CRL20, N-(2-(1H-indol-3-yl)ethyl)-2-(5-methylpyridin-3-yl)furo[3,2-d]pyrimidin-4-amine], in the series on CD34+ cells [1], the “cell expansion, rank among all the compounds” value was “supported cell expansion the best”; the “expansion, differentiation and cytotoxicity profiles compared to SR1” value was “very similar expansion, differentiation and cytotoxicity profiles as SR1”. Besides, in the series on CD34 cells, the CD34 cell expansion entry was “achieved the highest CD34 cell expansion”.
Regarding `CC(C)c1csc2c(NCCc3c[nH]c4ccccc34)nc(-c3cncc(F)c3)nc12` [CRL18, N-(2-(1H-indol-3-yl)ethyl)-2-(5-fluoropyridin-3-yl)-7-isopropylthieno[3,2-d]pyrimidin-4-amine], in the series with CD34+ cells [1], the “expansion compared to SR1” value is given as “slightly less expansion compared to SR1”. Moreover, the “killing activities compared to cells cultured with SR1” value with K562 tumor cells was “increased killing activities of the cells”. In the series on CD34+ cells [2], the “CD56+/CD11a+ subpopulation” value is “increased CD56+/CD11a+ subpopulation”.
Consider `N#Cc1cncc(-c2nc(NCCc3c[nH]c4ccccc34)c3occc3n2)c1` [CRL22, 5-(4-((2-(1H-indol-3-yl)ethyl)amino)furo[3,2-d]pyrimidin-2-yl)nicotinonitrile], for which, in the series with CD34+ cells [1], the “cell expansion, rank among all the compounds” value is “supported cell expansion the best”; the “expansion, differentiation and cytotoxicity profiles compared to SR1” value was “very similar expansion, differentiation and cytotoxicity profiles as SR1”. The CD34 cell expansion result in the series on CD34 cells is listed as “achieved the highest CD34 cell expansion”.
